This note sets out measurements from patent publication US12247008B2, “Multi-aziridine compound” (COVESTRO (NETHERLANDS) B.V., priority 2020, dated 2025).

The series relates to Rtkn-GFP. Kind of series: ToxTracker genotoxicity assay, Rtkn-GFP reporter induction.

On to `CC1CN1CC(C)(C)OC(=O)NCCCCCCn1c(=O)n(CCCCCCNC(=O)OC(C)(C)CN2CC2C)c(=O)n(CCCCCCNC(=O)OC(C)(C)CN2CC2C)c1=O` (stereo not drawn) [Ex. 1], for which the Rtkn induction level (with S9 rat liver extract, 3 h exposure and 24 h recovery, at 10% cytotoxicity) was 1.0 fold; the Rtkn induction level (with S9 rat liver extract, 3 h exposure and 24 h recovery, at 25% cytotoxicity) was 1.1 fold; the Rtkn induction level (with S9 rat liver extract, 3 h exposure and 24 h recovery, at 50% cytotoxicity) is given as 1.3 fold; the Rtkn induction level (without S9 rat liver extract, 24 h exposure, at 10% cytotoxicity) came to 1.1 fold; the Rtkn induction level (without S9 rat liver extract, 24 h exposure, at 25% cytotoxicity) is recorded as 1.1 fold; the Rtkn induction level (without S9 rat liver extract, 24 h exposure, at 50% cytotoxicity) came out at 1.3 fold.
